This is an account of results in patent EP4635966A1, “SYNTHETIC VARIANTS OF THE GANGLIOSIDE NGCGM3 AND USE THEREOF IN CANCER TREATMENT” (Centro de Inmunologia Molecular, priority 2022, dated 2024).

For test [1], the system named is iNKT cells. The experiment in a line: In vivo iNKT cell activation: serum IFNγ by ELISA after i.p. injection. Also noted: species or system C57BL/6 mice. To be noted: 200 µg i.p.; blood 16 hours after administration; Figure 7. As to the method:
C57BL/6 mice were injected intraperitoneally with 200 µg of natural NGcGM3 ganglioside, NGcGM3 d18:1-C24:1, NGcGM3 d18:1-C 18:0 and 2 µg of αGalCer or vehicle (5.6 % sucrose, 0.75 % L-histidine and 0.5 % Tween-20) and blood was drawn 16 hours after the administration. Serum IFNγ levels were assessed by ELISA as an indirect measure of iNKT cell activation (Mouse IFNy ELISA Ready-SET-Go!, eBioscience).
For orientation: In an ELISA, binding on a coated surface is turned into a signal by an enzyme label.

Test [2] deals with P3X63 myeloma cells. The experiment in a line: Subcutaneous P3X63 myeloma tumor growth (tumor volume). Conditions: day 5. Type of test: in vivo, BALB/c mice. The procedure: 1x10^6 P3X63 cells were implanted subcutaneously into syngeneic BALB/c mice. Animals were randomized, divided into groups of 6-8 and received intraperitoneal treatments with 200 µg NGcGM3 d18:1-C24:1 ganglioside, αGalCer or vehicle (5.6% sucrose solution, 0.75% L-histidine and 0.5% Tween20 0.5%) on days 1, 5 and 9. Tumor diameters were measured with a caliper and tumor volume (TV) was calculated according to the formula: TV (mm^3) = π/6 × major diameter × (minor diameter)^2. […] The individual tumor volume values of the animals in each group and the mean and standard deviation of the mean in each case on day 5 of the experiment are shown. […] Table 1. Percentage distribution of tumor volume of the animals in each group.
1x10^6 P3X63 myeloma cells were implanted subcutaneously into syngeneic BALB/c mice. Animals were randomized, divided into groups of 6-8 and received treatments with vehicle solution (5.6% sucrose, 0.75% L-histidine and 0.5% Tween-20), αGalCer, NGcGM3 d18:1-C24:1 or nanoparticles of OMPC and NGcGM3 d18:1-C24:1 (GlycoVax 24:1) on days 1, 5 and 9.
Subcutaneous tumor diameters were measured every 2-3 days with a caliper and TV was calculated according to the formula: TV (mm^3) = π/6 × major diameter × (minor diameter)^2. […]

Setting [3] is: Example 5, Table 1, 1x10^6 P3X63 s.c., i.p. on days 1, 5 and 9 (200 µg NGcGM3 d18:1-C24:1).
Where [4] appears, read: Example 10, Table 2, 1x10^6 P3X63 s.c., treatment on days 1, 5 and 9.

Regarding `CCCCCCCCCCCCCC=CC(O)C(COC1OC(CO)C(OC2OC(CO)C(O)C(OC3(C(=O)O)CC(O)C(NC(=O)CO)C(C(O)C(O)CO)O3)C2O)C(O)C1O)NC(=O)CCCCCCCCCCCCCCCCC` (stereo not shown) [NGcGM3 d18:1-C18:0, reference compound], the “serum IFNγ levels (in vivo activation of iNKT cells)” value in test [1] was “inactive”.

On to `CCCCCCCCCCCCCCCCCCCCCCCCCC(=O)N[C@@H](CO[C@H]1O[C@H](CO)[C@H](O)[C@H](O)[C@H]1O)[C@H](O)[C@H](O)CCCCCCCCCCCCCC` [αGalCer, α-galactosylceramide, reference compound], for which, in test [2] (setting [3]), the “TV < 36 mm^3 (percentage distribution of tumor volume of the animals)” value is on record as 25% and the “TV > 36 mm^3 (percentage distribution of tumor volume of the animals)” value was found to be 75%. Moreover, the “growth of subcutaneous tumors” value in test [2] (Example 5, p<0.001 for NGcGM3 d18:1-C24:1, p<0.05 for αGalCer vs placebo) is given as “significantly inhibited the growth of subcutaneous tumors”. Besides, in test [2] (setting [4]), the “TV < 36 mm^3 (percentage distribution of tumor volume of animals)” value is 25% and the “TV > 36 mm^3 (percentage distribution of tumor volume of animals)” value amounted to 75%. Besides, the “antitumor effect (inhibition of tumor growth vs control group)” value in test [2] (Example 10, p=0.0031 NGcGM3 d18:1-C24:1, p=0.0004 GlycoVax 24:1) is “did not show a statistically significant antitumor effect”.
